# Counter-ions that a name gives are not always drawn. Like-named read-outs stand apart in the source and are kept apart here.
# Key:
# [1] = cited from earlier work
# [2] = Release profile of base vs salt forms of drugs in liquid controlled release compositions, USP Apparatus 2; format: physicochemical; details: liquid sustained release compositions, 65% W/W sucrose; stored 3 weeks at room temperature
# [3] = sodium alginate 0.877 g/L, 25° C.
# Procedure: The studies were performed with a two compartment plexiglass dialysis cell (Hollenbeck laboratory) and having a cellulose membrane (molecular weight cutoff of 6000 Daltons) Bel-Art Products (Pequannock, N.J.) placed between the two cell compartments. […] The dialysis cell was shaken at 80 RPM in a thermostatic water bath at 25° C. until equilibrium was reached (30 h). The solution was removed from the drug compartment and the concentrations of free drug and polymer-bound drug measured by high performance liquid chromatography (“HPLC”).
# [4] = Effect of sucrose concentration in dispersion medium on albuterol release, USP Apparatus 2; format: physicochemical; details: alginate beads, 20% coating; stored 1 week at room temperature
# Procedure: The experiment was carried out with 16 mg of albuterol bound to the alginic acid resin, with 20% coating, and 40%, 50%, 60% or 65% W/W of sucrose in the dispersion medium. First, the alginate beads were loaded with the drug albuterol, where 5% of albuterol and 5% of alginic acid were used. Albuterol and alginic acid powders were placed in a beaker, 100 ml of water was added, and the mixture was stirred until a homogenous gel was formed. Then, 70% microcrystalline cellulose and 20% lactose were placed into a bowl of a low shear mixer and pre-blended with a spatula. Then, the albuterol-alginate gel was incrementally added to the microcrystalline cellulose and lactose blend and mixed to produce a wet mass. Additional 50 ml of water was added to the beaker to wash down its sides and added to the wet mass during its blending, and the resulting wet mass was transferred into a polyethylene bag. Then, the resulting wet mass material was extruded using a dome screen attachment with 0.8 mm screen size at 55 rpm, with the wet mass being gradually added into the extruder. Subsequently, the extrudate was spheronized at 750 rpm for approximately 30 sec, and then dried overnight in a convection oven at 45° C. The beads of appropriate size (material that passed through 16 mesh screens and retained on 20 mesh screens) were selected. […]
# [5] = single IR oral dose of 10 mg HC, 5 male human subjects
# [6] = total drug concentration 4.97 (M × 10^4)
# [7] = total drug concentration 5.47 (M × 10^4)
# [8] = total drug concentration 5.96 (M × 10^4)
# [9] = total drug concentration 6.96 (M × 10^4)
# [10] = total drug concentration 7.95 (M × 10^4)
# [11] = total drug concentration 8.95 (M × 10^4)
# [12] = total drug concentration 9.94 (M × 10^4)
# [13] = total drug concentration 14.91 (M × 10^4)
# [14] = total drug concentration 19.88 (M × 10^4)
# [15] = total drug concentration 24.86 (M × 10^4)
# [16] = total drug concentration 30.40 (M × 10^4)
# [17] = total drug concentration 41.20 (M × 10^4)
# [18] = total drug concentration 50.70 (M × 10^4)
smiles,measurement,setting,value
"CN(C)CCC(c1ccc(Cl)cc1)c1ccccn1 (stereo not shown) [chlorpheniramine, 2-pyridinepropanamine, -(4-chlorophenyl)-N,N-dimethyl-, (Z)-2-butenedioate (1:1)]",excreted in the feces,[1]; in vivo,Less than 1%
same,excreted in the urine (metabolism to monodesmethyl and didesmethyl compounds),[1]; in vivo,up to 26%
same,"renal elimination, share of total excretion",[1]; in vivo,approximately 50%
same,rate of release of salt forms vs base forms,[2],comparable
"CN[C@@H](C)[C@@H](O)c1ccccc1 (relative stereo) [pseudoephedrine, benzenemethanol, -[1-(methylamino)ethyl]-, [S—(R*,R*)]-, hydrochloride]",half-life,[1]; affected by urinary pH,9 to 16 h
same,dose excreted unchanged in the urine within 24 hours of dosing,[1]; in vivo,up to 90%
same,Tmax following administration,[1]; previously published studies,1.5 to 2.4 h
same,rate of release of salt forms vs base forms,[2],comparable
"COc1ccc2c3c1O[C@H]1C(=O)CC[C@H]4[C@@H](C2)N(C)CC[C@]314 (relative stereo) [hydrocodone, morphinan-6-one, 4,5-epoxy-3-methoxy-17-methyl-,(5)-, [R—(R*,R*)]-2,3-dihydroxybutane-dioate (1:1), hydrate (2:5)]",elimination half-life of the parent-compound,[1]; in vivo,3.8 to 4.5 h
same,Tmax,[1]; [5],approximately 1.3±0.3 hours
same,mean peak serum concentration,[1]; [5],23.6 ± 5.2 ng/mL
same,total excretion occurring in the first 24 hours,[1]; single oral dose,About 70%
"CC(C)NCC(O)COc1cccc2ccccc12.Cl (stereo not shown) [propranolol, propranolol hydrochloride]","(l/g), r/(Df)",[3]; [6],4.88 L/g
same,Amount bound per gram of polymer,[3]; [6],4.59 M × 10^4
same,Bound drug concentration,[3]; [6],4.03 M × 10^4
same,Free drug concentration,[3]; [6],0.94 M × 10^4
same,"(l/g), r/(Df)",[3]; [7],3.97 L/g
same,Amount bound per gram of polymer,[3]; [7],4.84 M × 10^4
same,Bound drug concentration,[3]; [7],4.25 M × 10^4
same,Free drug concentration,[3]; [7],1.22 M × 10^4
same,"(l/g), r/(Df)",[3]; [8],3.60 L/g
same,Amount bound per gram of polymer,[3]; [8],5.16 M × 10^4
same,Bound drug concentration,[3]; [8],4.53 M × 10^4
same,Free drug concentration,[3]; [8],1.43 M × 10^4
same,"(l/g), r/(Df)",[3]; [9],3.21 L/g
same,Amount bound per gram of polymer,[3]; [9],5.86 M × 10^4
same,Bound drug concentration,[3]; [9],5.14 M × 10^4
same,Free drug concentration,[3]; [9],1.82 M × 10^4
same,"(l/g), r/(Df)",[3]; [10],2.49 L/g
same,Amount bound per gram of polymer,[3]; [10],6.23 M × 10^4
same,Bound drug concentration,[3]; [10],5.46 M × 10^4
same,Free drug concentration,[3]; [10],2.49 M × 10^4
same,"(l/g), r/(Df)",[3]; [11],1.71 L/g
same,Amount bound per gram of polymer,[3]; [11],6.12 M × 10^4
same,Bound drug concentration,[3]; [11],5.37 M × 10^4
same,Free drug concentration,[3]; [11],3.57 M × 10^4
same,"(l/g), r/(Df)",[3]; [12],1.62 L/g
same,Amount bound per gram of polymer,[3]; [12],6.66 M × 10^4
same,Bound drug concentration,[3]; [12],5.83 M × 10^4
same,Free drug concentration,[3]; [12],4.10 M × 10^4
same,"(l/g), r/(Df)",[3]; [13],1.17 L/g
same,Amount bound per gram of polymer,[3]; [13],8.61 M × 10^4
same,Free drug concentration,[3]; [13],7.36 M × 10^4
same,"(l/g), r/(Df)",[3]; [14],0.87 L/g
same,Amount bound per gram of polymer,[3]; [14],9.81 M × 10^4
same,Bound drug concentration,[3]; [14],8.60 M × 10^4
same,Free drug concentration,[3]; [14],11.28 M × 10^4
same,"(l/g), r/(Df)",[3]; [15],0.60 L/g
same,Amount bound per gram of polymer,[3]; [15],10.73 M × 10^4
same,Bound drug concentration,[3]; [15],9.41 M × 10^4
same,Free drug concentration,[3]; [15],15.45 M × 10^4
same,"(l/g), r/(Df)",[3]; [16],0.57 L/g
same,Amount bound per gram of polymer,[3]; [16],11.49 M × 10^4
same,Bound drug concentration,[3]; [16],10.08 M × 10^4
same,Free drug concentration,[3]; [16],20.32 M × 10^4
same,"(l/g), r/(Df)",[3]; [17],0.41 L/g
same,Amount bound per gram of polymer,[3]; [17],12.37 M × 10^4
same,Bound drug concentration,[3]; [17],10.84 M × 10^4
same,Free drug concentration,[3]; [17],30.35 M × 10^4
same,"(l/g), r/(Df)",[3]; [18],0.33 L/g
same,Amount bound per gram of polymer,[3]; [18],12.93 M × 10^4
same,Bound drug concentration,[3]; [18],11.34 M × 10^4
same,Free drug concentration,[3]; [18],39.36 M × 10^4
CC(C)(C)NCC(O)c1ccc(O)c(CO)c1 (stereo not shown) [albuterol],"release from beads suspended in 50%, 60% and 65% W/W of sucrose vs 40% W/W of sucrose",[4],slower

# Reference: US20100092562A1, “SUSTAINED-RELEASE DRUG DELIVERY COMPOSITIONS AND METHODS” (priority 2002, published 2010)
